Biological target: T1, human TLR8 (Homo sapiens, UniProt Q9NR97)
T1 sequence (Q9NR97 27-1041): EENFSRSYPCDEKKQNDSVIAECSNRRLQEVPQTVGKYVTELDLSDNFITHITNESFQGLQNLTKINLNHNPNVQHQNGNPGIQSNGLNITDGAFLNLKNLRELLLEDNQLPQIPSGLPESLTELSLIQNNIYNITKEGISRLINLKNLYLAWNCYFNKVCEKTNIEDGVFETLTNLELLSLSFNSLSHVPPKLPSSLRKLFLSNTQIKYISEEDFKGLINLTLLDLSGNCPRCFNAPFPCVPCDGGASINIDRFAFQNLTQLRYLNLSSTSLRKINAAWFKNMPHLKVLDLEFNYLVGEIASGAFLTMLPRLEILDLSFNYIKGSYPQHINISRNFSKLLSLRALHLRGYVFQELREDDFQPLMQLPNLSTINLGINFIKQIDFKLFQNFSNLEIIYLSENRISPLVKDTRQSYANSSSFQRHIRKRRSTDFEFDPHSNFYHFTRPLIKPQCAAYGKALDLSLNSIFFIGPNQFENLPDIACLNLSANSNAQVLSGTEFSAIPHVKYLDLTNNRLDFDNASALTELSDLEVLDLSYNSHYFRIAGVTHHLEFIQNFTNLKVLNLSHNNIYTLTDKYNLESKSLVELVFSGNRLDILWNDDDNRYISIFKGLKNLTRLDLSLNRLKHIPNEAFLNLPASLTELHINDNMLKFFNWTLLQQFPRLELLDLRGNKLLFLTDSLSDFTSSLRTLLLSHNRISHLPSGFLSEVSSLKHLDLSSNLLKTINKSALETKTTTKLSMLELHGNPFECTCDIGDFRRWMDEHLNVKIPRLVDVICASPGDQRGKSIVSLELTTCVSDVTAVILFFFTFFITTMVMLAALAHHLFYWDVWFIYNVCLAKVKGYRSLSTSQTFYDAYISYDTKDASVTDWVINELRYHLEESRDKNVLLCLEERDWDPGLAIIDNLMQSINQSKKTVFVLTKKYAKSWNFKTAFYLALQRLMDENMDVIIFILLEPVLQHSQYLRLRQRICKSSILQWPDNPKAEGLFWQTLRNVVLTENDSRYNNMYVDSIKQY
Assay: HEK293-Blue-hTLR-8 cells assay
Type: cell-based
Conditions: HEK293-Blue-hTLR8 cells, R848 stimulation, 20 hrs, SEAP reporter; read-out: HEK/hTLR8 IC50
Description: HEK293-Blue-hTLR-8 Cells Assay:
A stable HEK293-Blue-hTLR-8 cell line was purchased from InvivoGen (Cat. #: hkb-htlr8, San Diego, California, USA). These cells were originally designed for studying the stimulation of human TLR8 by monitoring the activation of NF-κB. A SEAP (secreted embryonic alkaline phosphatase) reporter gene was placed under the control of the IFN-β minimal promoter fused to five NF-κB and AP-1-binding sites. The SEAP was induced by activating NF-κB and AP-1 via stimulating HEK-Blue hTLR8 cells with TLR8 ligands. Therefore the reporter expression was declined by TLR8 antagonist under the stimulation of a ligand, such as R848, for incubation of 20 hrs. The cell culture supernatant SEAP reporter activity was determined using QUANTI-Blue™kit (Cat. #: rep-qb1, Invivogen, San Diego, Ca, USA) at a wavelength of 640 nm, a detection medium that turns purple or blue in the presence of alkaline phosphatase.
HEK293-Blue-hTLR8 cells were incubated at a density of 250,000-450,000 cells/mL in a volume of 170 μL in a 96-well plate in Dulbecco's Modified Eagle's medium (DMEM) containing 4.5 g/L glucose, 50 U/mL penicillin, […], […], 2 mM L-glutamine, 10% (v/v) heat-inactivated fetal bovine serum with addition of 20 μL test compound 1n a serial dilution in the presence of final DMSO at 1% and 10 μL of 60 uM R848 in above DMEM, perform incubation under 37° C. in a CO2 incubator for 20 hrs. Then 20 μL of the supernatant from each well was incubated with 180 μL Quanti-blue substrate solution at 37° C. for 2 hrs and the absorbance was read at 620-655 nm using a spectrophotometer. The signaling pathway that TLR8 activation leads to downstream NF-κB activation has been widely accepted, and therefore similar reporter assay was modified for evaluating TLR8 antagonist.

Row | SMILES | IC50
1 | C[C@@H]1CN(c2ccc(C#N)c3ncsc23)C[C@@H]2c3ccc(N4CCNCC4)cc3CN12 [Example 6, 7-[(4R,10bS)-4-methyl-8-piperazin-1-yl-3,4,6,10b-tetrahydro-1H-pyrazino[2,1-a]isoindol-2-yl]-1,3-benzothiazole-4-carbonitrile] | < 3.2 nM
2 | C[C@@H]1CN(c2ccc(C#N)c3ncccc23)C[C@@H]2c3ccc(N4C[C@@H](F)[C@@H](N)C4)cc3CN12 [Example 46, 5-[(4R,10bS)-8-[(3S,4R)-3-amino-4-fluoro-pyrrolidin-1-yl]-4-methyl-3,4,6,10b-tetrahydro-1H-pyrazino[2,1-a]isoindol-2-yl]quinoline-8-carbonitrile] | 0.4 nM
3 | C[C@@H]1CN(c2ccc(C#N)c3ncccc23)C[C@@H]2c3ccc(OCCN(C)C)cc3CN12 [Example 25, 5-[(4R,10bS)-8-[2-(dimethylamino)ethoxy]-4-methyl-3,4,6,10b-tetrahydro-1H-pyrazino[2,1-a]isoindol-2-yl]quinoline-8-carbonitrile] | < 3.2 nM
4 | CN[C@H]1CN(c2ccc3c(c2)CN2[C@H](C)CN(c4ccc(C#N)c5ncccc45)C[C@H]32)C[C@@H]1OC [Example 23, 5-[(4R,10bS)-8-[(3S,4S)-3-methoxy-4-(methylamino)pyrrolidin-1-yl]-4-methyl-3,4,6,10b-tetrahydro-1H-pyrazino[2,1-a]isoindol-2-yl]quinoline-8-carbonitrile] | < 3.2 nM
5 | CO[C@H]1CN(c2ccc3c(c2)CN2[C@H](C)CN(c4ccc(C#N)c5ncccc45)C[C@H]32)C[C@@H]1N (relative stereo) [Example 16, 5-[(4R,10bS)-8-[trans-3-amino-4-methoxy-pyrrolidin-1-yl]-4-methyl-3,4,6,10b-tetrahydro-1H-pyrazino[2,1-a]isoindol-2-yl]quinoline-8-carbonitrile] | < 3.2 nM
6 | C[C@@H]1CN(c2ccc(C#N)c3ncccc23)C[C@@H]2c3ccc(N4C[C@@H](N)[C@](C)(O)C4)cc3CN12 [Example 45A, 5-[(4R,10bS)-8-[(3R,4R)-4-amino-3-hydroxy-3-methyl-pyrrolidin-1-yl]-4-methyl-3,4,6,10b-tetrahydro-1H-pyrazino[2,1-a]isoindol-2-yl]quinoline-8-carbonitrile] | 1.5 nM
7 | C[C@@H]1CN(c2ccc(C#N)c3ncccc23)C[C@@H]2c3ccc(N[C@H]4CNC[C@H]4F)cc3CN12 [Example 30, 5-[(4R,10bS)-8-[[(3S,4R)-4-fluoropyrrolidin-3-yl]amino]-4-methyl-3,4,6,10b-tetrahydro-1H-pyrazino[2,1-a]isoindol-2-yl]quinoline-8-carbonitrile] | < 3.2 nM
8 | C[C@@H]1CN(c2ccc(C#N)c3ncccc23)C[C@@H]2c3ccc(N4CC5(CN(C)C5)C4)cc3CN12 [Example 38, 5-[(4R,10bS)-4-methyl-8-(6-methyl-2,6-diazaspiro[3.3]heptan-2-yl)-3,4,6,10b-tetrahydro-1H-pyrazino[2,1-a]isoindol-2-yl]quinoline-8-carbonitrile] | < 0.3 nM
9 | C[C@@H]1CN(c2ccc(C#N)c3ncccc23)C[C@@H]2c3ccc(N4CCOC5(CNC5)C4)cc3CN12 [Example 24, 5-[(4R,10bS)-4-methyl-8-(5-oxa-2,8-diazaspiro[3.5]nonan-8-yl)-3,4,6,10b-tetrahydro-1H-pyrazino[2,1-a]isoindol-2-yl]quinoline-8-carbonitrile] | < 3.2 nM
10 | C[C@@H]1CN(c2ccc(C#N)c3ncccc23)C[C@@H]2c3cccc(N4CCNCC4)c3CN12 [Example 8, 5-[(4R,10bS)-4-methyl-7-piperazin-1-yl-3,4,6,10b-tetrahydro-1H-pyrazino[2,1-a]isoindol-2-yl]quinoline-8-carbonitrile] | < 3.2 nM

Next, values leading:

Row | IC50 | SMILES
11 | 16.5 nM | C[C@@H]1CN(c2ccc(C#N)n3nccc23)C[C@@H]2c3ccc(N4CC5CNCC(C4)O5)cc3CN12 [Example 107, 4-[(4R,10bS)-4-methyl-8-(9-oxa-3,7-diazabicyclo[3.3.1]nonan-3-yl)-3,4,6,10b-tetrahydro-1H-pyrazino[2,1-a]isoindol-2-yl]pyrazolo[1,5-a]pyridine-7-carbonitrile]
12 | < 3.2 nM | C[C@@H]1CN(c2ccc(C#N)c3ncccc23)C[C@@H]2c3ccc(N4CCOC5CNCC54)cc3CN12 (stereo partly drawn) [Example 52, 5-[(4R,10bS)-8-(3,4a,5,6,7,7a-hexahydro-2H-pyrrolo[3,4-b][1,4]oxazin-4-yl)-4-methyl-3,4,6,10b-tetrahydro-1H-pyrazino[2,1-a]isoindol-2-yl]quinoline-8-carbonitrile]
13 | 8.8 nM | C[C@@H]1CN(c2ccc(C#N)n3nccc23)C[C@@H]2c3ccc(N[C@H]4CNC[C@H]4F)cc3CN12 [Example 98, 4-[(4R,10bS)-8-[[(3S,4R)-4-fluoropyrrolidin-3-yl]amino]-4-methyl-3,4,6,10b-tetrahydro-1H-pyrazino[2,1-a]isoindol-2-yl]pyrazolo[1,5-a]pyridine-7-carbonitrile]
14 | < 0.3 nM | [2H]c1ccc2c(N3C[C@@H](C)N4Cc5cc(N6CC(C)(N)C6)ccc5[C@H]4C3)ccc(C#N)c2n1 [Example 92, 5-[(4R,10bS)-8-(3-amino-3-methyl-azetidin-1-yl)-4-methyl-3,4,6,10b-tetrahydro-1H-pyrazino[2,1-a]isoindol-2-yl]-2-deuterio-quinoline-8-carbonitrile]
15 | 1 nM | C[C@@H]1CN(c2ccc3c(c2)CN2[C@H](C)CN(c4ccc(C#N)n5nccc45)C[C@H]32)CCN1 [Example 97, 4-[(4R,10bS)-4-methyl-8-[(3R)-3-methylpiperazin-1-yl]-3,4,6,10b-tetrahydro-1H-pyrazino[2,1-a]isoindol-2-yl]pyrazolo[1,5-a]pyridine-7-carbonitrile]
16 | 5.6 nM | CO[C@@H]1CN(c2ccc3c(c2)CN2[C@H](C)CN(c4ccc(C#N)n5nccc45)C[C@H]32)C[C@H]1N [Example 94, 4-[(4R,10bS)-8-[(3R,4R)-3-amino-4-methoxy-pyrrolidin-1-yl]-4-methyl-3,4,6,10b-tetrahydro-1H-pyrazino[2,1-a]isoindol-2-yl]pyrazolo[1,5-a]pyridine-7-carbonitrile]
17 | < 3.2 nM | C[C@@H]1CN(c2ccc(C#N)c3ncccc23)C[C@@H]2c3ccc(N4CCNC[C@H](O)C4)cc3CN12 [Example 53A, 5-[(4R,10bS)-8-[(6S)-6-hydroxy-1,4-diazepan-1-yl]-4-methyl-3,4,6,10b-tetrahydro-1H-pyrazino[2,1-a]isoindol-2-yl]quinoline-8-carbonitrile]
18 | < 3.2 nM | C[C@@H]1CN(c2ccc(C#N)c3ncccc23)C[C@@H]2c3ccc(N4CCNC[C@](C)(O)C4)cc3CN12 [Example 55A, 5-[(4R,10bS)-8-[(6S)-6-hydroxy-6-methyl-1,4-diazepan-1-yl]-4-methyl-3,4,6,10b-tetrahydro-1H-pyrazino[2,1-a]isoindol-2-yl]quinoline-8-carbonitrile]
19 | < 3.2 nM | C[C@@H]1CN(c2ccc(C#N)c3ncccc23)C[C@@H]2c3ccc(N4CCOC[C@@H](N)C4)cc3CN12 [Example 54B, 5-[(4R,10bS)-8-[(6S)-6-amino-1,4-oxazepan-4-yl]-4-methyl-3,4,6,10b-tetrahydro-1H-pyrazino[2,1-a]isoindol-2-yl]quinoline-8-carbonitrile]
20 | < 3.2 nM | C[C@@H]1CN(c2ccc(C#N)c3ncccc23)C[C@@H]2c3ccc(N4CCNCC(C)(O)C4)cc3CN12 (stereo partly drawn) [Example 55, 5-[(4R,10S)-8-(6-hydroxy-6-methyl-1,4-diazepan-1-yl)-4-methyl-3,4,6,10b-tetrahydro-1H-pyrazino[2,1-a]isoindol-2-yl]quinoline-8-carbonitrile]

From US12157746B2, “Tetrahydro-1H-pyrazino[2,1-a]isoindolylquinoline compounds for the treatment of autoimmune disease” (F. HOFFMANN-LA ROCHE AG, priority 2018, dated 2024)
